Test results as given in US8796327B2, “Method for inhibiting production of cytokines of T helper cell type II and/or inhibiting production of chemokines using brazilin” (China Medical University, priority 2010, dated 2014).

Tested on: IL-5 mRNA
Experiment: Real-time PCR of IL-5 mRNA in EL-4 T lymphoma cells
Format: cell-based, mouse
Details: for Expression level of IL-5 mRNA: PMA + cAMP stimulated EL-4 cells, corrected to HPRT
Experimental: Then, at a density of 5×10^5 counts/ml, the T lymphoma cells were bred in a six-well culture dish, and at the 0th minute, brazilin of different concentrations (0.3, 1, 3, 10, or 30 micromole (μM)) was added into the cell culture solution at an amount of 1 μl/ml-cell culture solution. Then, the cells were put into the incubator to be cultured therein. 30 minutes later, at an amount of 1 μl/ml-cell culture solution, 5 μg/ml PMA and cAMP at a 250 mmol concentration were added to the cell culture solution to stimulate the expression of IL-4 and IL-5 of the T lymphoma cells. During the process of cell culture, the trypan blue exclusion assay was employed to observe effect of the brazilin on the cell viability, results of which are shown in Table 1 and FIG. 1.
Expression of mRNA of IL-4, IL-5, GATA-3, c-maf, and T-bet were analyzed in a quantitative way through real-time polymerase chain reaction (PCR) by extracting RNA in the cells obtained in Experiment A (using an RNA purifying kit), converting the RNA into cDNA through reverse transcription, and using an ABI PRISM 7700 sequence detector (Applied Biosystems, Foster City, Calif., America) to analyze the gene expression of mRNA. The PCR was carried out under the following conditions: 50° C., 2 minutes; 95° C., 10 minutes; 60° C., 1 minute; then repeating this cycle forty times. A threshold cycle (or referred to as Ct) was used to represent the expression level of each gene, and an expression level of hypoxanthine-guanine phosphoribosy transferase (HPRT) genes of the endogenous control group was used for correction of the expression level of mRNA.

## Oc1ccc2c(c1)OC[C@]1(O)Cc3cc(O)c(O)cc3[C@H]21 [brazilin]
EL-4 cells, result in words
  expression of mRNA of IL-5: inhibited
Brazilin 0.3 μM
  Expression level of IL-5 mRNA: 1397 ± 172.2
Brazilin 1 μM
  Expression level of IL-5 mRNA: 1225 ± 47.23
Brazilin 3 μM
  Expression level of IL-5 mRNA: 1009 ± 77.66
Brazilin 10 μM
  Expression level of IL-5 mRNA: 926.2 ± 40.70
Brazilin 30 μM
  Expression level of IL-5 mRNA: 594.8 ± 252.9
